Measured values reported in BindingDB's records for doi:10.1021/jm981008a (1998).

Columns and labels:
[1] = molecular target: T1, Sodium-dependent dopamine transporter (Homo sapiens, UniProt Q01959); assay: The compound was tested in vitro for high binding affinity for the Dopamine transporter (DAT) using competitive binding assay.
[2] = molecular target: Sodium-dependent noradrenaline transporter (Homo sapiens, UniProt P23975); assay: The compound was tested in vitro for binding affinity for the norepinephrine transporter (NET) using competitive binding assay.
Sequence of Sodium-dependent noradrenaline transporter (P23975 whole entry): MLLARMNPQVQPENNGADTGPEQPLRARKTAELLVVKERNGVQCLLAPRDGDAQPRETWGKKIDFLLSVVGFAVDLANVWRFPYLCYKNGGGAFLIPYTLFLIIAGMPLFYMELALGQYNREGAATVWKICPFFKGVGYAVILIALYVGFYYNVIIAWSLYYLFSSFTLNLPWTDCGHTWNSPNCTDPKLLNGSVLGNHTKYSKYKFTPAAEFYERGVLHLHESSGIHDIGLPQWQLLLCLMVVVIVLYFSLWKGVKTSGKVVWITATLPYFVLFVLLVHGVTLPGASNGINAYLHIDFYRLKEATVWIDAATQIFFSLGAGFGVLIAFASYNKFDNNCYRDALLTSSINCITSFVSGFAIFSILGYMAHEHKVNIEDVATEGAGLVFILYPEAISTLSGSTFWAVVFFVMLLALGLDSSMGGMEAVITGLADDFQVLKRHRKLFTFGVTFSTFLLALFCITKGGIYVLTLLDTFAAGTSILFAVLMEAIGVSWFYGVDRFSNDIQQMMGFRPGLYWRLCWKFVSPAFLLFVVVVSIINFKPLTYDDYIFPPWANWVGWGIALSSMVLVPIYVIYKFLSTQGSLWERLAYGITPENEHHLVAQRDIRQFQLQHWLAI

[3] = molecular target: T1, Sodium-dependent dopamine transporter; assay: The compound was tested in vitro for low binding affinity for the Dopamine transporter (DAT) using competitive binding assay.
[4] = molecular target: Sodium-dependent serotonin transporter (Homo sapiens, UniProt P31645); assay: The compound was tested in vitro for binding affinity for the serotonin transporter (5-HTT) using competitive binding assay.
Sequence of Sodium-dependent serotonin transporter (P31645 whole entry): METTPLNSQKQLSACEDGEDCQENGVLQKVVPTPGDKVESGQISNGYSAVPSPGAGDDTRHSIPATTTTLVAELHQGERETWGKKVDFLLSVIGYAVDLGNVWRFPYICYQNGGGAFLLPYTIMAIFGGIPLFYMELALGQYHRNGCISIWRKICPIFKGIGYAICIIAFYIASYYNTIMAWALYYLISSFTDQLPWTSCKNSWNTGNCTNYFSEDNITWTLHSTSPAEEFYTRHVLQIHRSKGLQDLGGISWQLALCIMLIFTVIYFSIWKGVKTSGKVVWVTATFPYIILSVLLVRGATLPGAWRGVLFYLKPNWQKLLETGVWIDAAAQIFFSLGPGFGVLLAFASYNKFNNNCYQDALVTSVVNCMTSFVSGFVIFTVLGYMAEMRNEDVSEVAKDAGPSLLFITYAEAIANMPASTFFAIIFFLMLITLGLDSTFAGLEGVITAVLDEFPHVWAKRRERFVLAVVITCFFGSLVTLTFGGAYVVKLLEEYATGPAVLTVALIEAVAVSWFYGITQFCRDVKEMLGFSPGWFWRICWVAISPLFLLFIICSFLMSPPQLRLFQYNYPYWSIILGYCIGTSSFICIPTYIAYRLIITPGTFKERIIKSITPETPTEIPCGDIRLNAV

T1 sequence (Q01959 whole entry): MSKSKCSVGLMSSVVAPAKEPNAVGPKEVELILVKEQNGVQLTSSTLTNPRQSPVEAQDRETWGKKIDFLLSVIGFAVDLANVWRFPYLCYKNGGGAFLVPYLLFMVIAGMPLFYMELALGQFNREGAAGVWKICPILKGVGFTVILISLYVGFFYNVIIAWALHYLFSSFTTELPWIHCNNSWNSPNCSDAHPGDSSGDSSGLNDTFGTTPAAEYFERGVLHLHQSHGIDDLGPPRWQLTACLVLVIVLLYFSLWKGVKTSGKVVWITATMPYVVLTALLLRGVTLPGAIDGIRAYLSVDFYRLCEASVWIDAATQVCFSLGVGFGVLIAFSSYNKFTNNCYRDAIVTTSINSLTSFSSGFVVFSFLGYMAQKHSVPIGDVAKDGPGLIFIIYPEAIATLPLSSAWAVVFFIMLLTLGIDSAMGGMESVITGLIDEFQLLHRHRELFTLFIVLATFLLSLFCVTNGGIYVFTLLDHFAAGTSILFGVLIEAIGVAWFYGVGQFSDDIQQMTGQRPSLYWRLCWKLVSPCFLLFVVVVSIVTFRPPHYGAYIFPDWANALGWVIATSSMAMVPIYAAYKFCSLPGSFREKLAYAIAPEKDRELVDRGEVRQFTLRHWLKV

Structure (SMILES): CN1C2CCC1[C@@H](COC(=O)CC[S+]1CC[S+](C)[Re]1([Br])([CH]=O)([CH]=O)[CH]=O)[C@@H](c1ccc(F)cc1)C2 (some centres undefined) [Rhenium complex of 3-(2-Bromo-2,2,2-triformyl-3-methyl-1lambda*4*,2lambda*6*,3lambda*4*-[1,2,3]dithiolan-1-yl)-propionic acid 3-(4-fluoro-phenyl)-8-methyl-8-aza-bicyclo[3.2.1]oct-2-ylmethyl ester]
- IC50 [1]: 0.146 nM
- IC50 [2]: 7.3 nM
- IC50 [3]: 20 nM
- IC50 [4]: 72 nM
